Format in all cases: cell-based, mouse
Assay [1] relates to differentiating TH17 cells. In words: 15N-α-glutamine flux analysis (transamination) in differentiating TH17 cells. The protocol:
CD4 naïve T cells, differentiating TH17 or iTreg cells (68 hours) were incubated with fresh media prior to labeling. The cells were then cultured for 4 hours at 37° C. with medium where the glutamine was replaced with the corresponding stable isotope label: 2 mM U-^13C glutamine or 2 mM ^15N-α-glutamine for 4 hours at 37° C. The cells were quickly collected and quickly washed with phosphate buffer saline (PBS), pelleted, and snap frozen in liquid nitrogen. The frozen samples were kept in −80° C. until extraction. Cell extracts were prepared by first adding 80/20 MeOH/H2O at −60° C. to the frozen pellets and collecting the supernatant after centrifugation at 4° C. The extracted samples were analyzed by high-resolution liquid-chromatography-mass spectrometry. Unlabeled glutamine-fed cells were used as background.
For amino acid profiling: The ultra-high pressure liquid chromatography (U-HPLC) system consisted of a Thermo Fisher Scientific (San Jose, USA) U-HPLC pumping system, coupled to an autosampler and degasser. Chromatographic separation of the intracellular metabolites was achieved by usage of a reversed phase Atlantis® T3 (3 μm, 2.1 mm ID×150 mm) column (Waters, Eschborn, Germany) and by implementation of a gradient elution program. […]

Assay [2] has as its system differentiating iTreg cells. Kind of assay: Intracellular metabolite profiling by LC/MS in differentiating iTreg cells. As to conditions: day 2.5, 0.5 mM AOA. The protocol:
CD4 naïve T cells, differentiating TH17 cells (day 2.5), and differentiating iTreg cells (day 2.5) were obtained as described above. A solution of 80/20 methanol (MeOH)/H2O was used to extract intracellular metabolites. The extracted samples were analyzed with liquid chromatography (LC)/mass spectrometry (MS) metabolomics. 200 ng/mL of extraction standard (L-Glutamic acid-^13C5-^15N-d5) was added into samples, and the peak value for each metabolite was normalized to extraction standard. The data was transformed into Log 2 and clustered. Cell extracts obtained as described above were analyzed for relative abundance of ^13C and ^15N metabolites by liquid chromatography-triple quadrupole mass spectrometry (LC-MS) using scheduled selective reaction monitoring (SRM) for each metabolite of interest, with the detector set to negative mode. Quantitation of intracellular 2-hydroxyglutarate (2HG) was conducted as described previously (Kernesky et al., Blood 2015, 125(2) 296-303).

For assay [3], the system named is FOXP3 promoter and its intronic CpG island. In words: Methylation analysis by bisulfite sequencing, T cells under iTreg condition. Conditions: iTreg condition (day 5); 0.5 mM dimethyl R-2-HG or AOA; male mice. As to the method:
The method is essentially the same as described previously (Kim, et al. J Exp Med 204 (7), 1543-1551 (2007)). Briefly, genomic DNA was purified with Blood & Cell Culture DNA Midi Kit (Qiagen). Bisufite conversion of genomic DNA was performed using Epitect® bisulfite kit (Qiagen), according to the manufacture's instruction. The PCR product was run on 2% agarose, purified and cloned using TOPO® TA Cloning® Kit with PCR®4. Clones are picked for Sanger sequencing.

For assay [4], the system named is FOXP3 mRNA in iTreg cells. In words: mRNA expression analysis by qRT-PCR in iTreg cells. Conditions: normalized to β-actin. As to the method: (§1) At the end of differentiation (day 6), T cells were re-stimulated with plate-coated anti-CD3 and anti-CD28 for 5 hours in the absence of any small-molecule compounds or metabolites. Quantitative reverse transcriptase polymerase chain reaction (qRT-PCR) was performed to evaluate mRNA expression of FOXP3, Il17, Il17f, and Rorc. For differentiating TH17 or iTreg cells, cells were collected on day 2.5 or at the indicated time for mRNA expression analysis. The expression was normalized to β-actin.
In general terms: In qPCR the cycle at which signal appears reflects the starting amount.

For assay [5], the system named is FOXP3, Il17, Il17f, and Rorc mRNA in TH17 cells. Kind of assay: mRNA expression analysis by qRT-PCR in TH17 cells. Conditions: normalized to β-actin. The protocol:
as §1

On to `NOCC(=O)O` [AOA, (aminooxy)-acetic acid], for which the “reduction of total intracellular 15N-α-aspartate” value in assay [1] (differentiating TH17 cells fed 2 mM 15N-α-glutamine for 4 hours) was determined as 90%. In assay [1] (differentiating TH17 cells, 2 mM 15N-α-glutamine for 4 hours), the “de novo synthesis for several amino acids (15N label incorporation)” value is “significant decreases”. In assay [2], the “abundance of TCA cycle intermediates (α-KG, succinate, fumarate, malate, citrate)” value is “reduced partially”; the level of glutamate result is “slightly higher”; the “reduction of steady-state levels of 2-HG” value was 50%. The “methylation level of FOXP3 promoter and its intronic CpG island” value in assay [3] was “dramatically decreased the methylation levels”. Also, the “FOXP3 mRNA expression” value in assay [4] is “promoted transcription of FOXP3”. The “FOXP3 mRNA expression” value in assay [5] is reported as “promoted transcription of FOXP3”. Also, the “Il17/Il17f mRNA level” value in assay [5] (re-stimulated with anti-CD3 and anti-CD28 for 5 hours) is “selectively reduced the mRNA level of Il17/Il17f”.

The values above are taken from patent US11241455B2, “Methods of treating disease by metabolic control of T-cell differentiation” (The J. David Gladstone Institutes, a testamentary trust …, priority 2016, dated 2022).
